Data from US20070218456A1, “CELLULAR ASSAYS FOR SIGNALING RECEPTORS” (INVITROGEN CORPORATION, priority 2006, published 2007).
pEC50: −log10 of the molar value. ≈ marks a conversion by molar mass, not a printed value.

Key:
[1] = tested on: TREx™-mG2A-NFAT-bla Freestyle293F cells; experiment: TREx-mG2A-NFAT-bla Freestyle293F (mouse G2A) doxycycline response; assay type: cell-based; settings: Homo sapiens, FreeStyle 293-F, 16 h
Experimental: TREx™-mG2A-NFAT-bla Freestyle293F cells were stimulated for 16 hours with doxycycline in the presence of 0.5% DMSO. Cells were then loaded with LiveBLAzer™-FRET B/G (CCF4-AM) for 2 hours. Fluorescence emission values at 460 nm and 530 nm are obtained using a standard florescence plate reader and the Blue/Green Emission ratios are plotted against the concentration of the stimulant.

[2] = tested on: T-REx™-GPR23-CRE-bla-CHO-K1 clone H6-E2; experiment: T-REx-GPR23-CRE-bla-CHO-K1 clone H6-E2 beta-lactamase reporter assay (induction); assay type: cell-based, Chinese hamster
Experimental: Six clones selected for further testing were expanded and retested for their inducible GPR23 specific activity. The clones were plated at 25,000 cells per well in a 96 well black walled clear bottom tissue culture assay plate. The plates were than placed at 37° C. 5% CO2 for 24 hrs to allow the cells to attach to the assay plate. The complete media was then removed from the plate and replaced with assay media (DMEM+0.1% BSA) containing 100 ng/ml pertussis toxin with or without 1 μg/ml tetracycline. The plates were placed at 37° C. 5% CO2 for 16 hrs to allow the induced expression of the GPR23 receptor. The cells were then loaded with LiveBLAzer™-FRET B/G substrate (2 μM) containing solution D for 2 hrs. To determine the optimal cell density for this assay the cells were plated at 2,500, 5,000, 10,000, and 20,000 cells per well in a 384 well black walled clear bottom tissue culture assay plate in complete media (DMEM+10% FBS). The plates were than placed at 37° C. 5% CO2 for 24 hrs to allow the cells to attach to the assay plate. The complete media was then removed from the plate and replaced with assay media (DMEM+0.1% BSA) containing 100 ng/ml pertussis toxin and a four fold dilution series of doxycycline starting at 1 μg/ml. The plates were placed at 37° C./5% CO2 for 16 hrs to allow the induced expression of the GPR23 receptor. The cells were then loaded with LiveBLAzer™-FRET B/G substrate (2 μM) containing solution D for 2 hrs. The cells were plated at 20,000 cells per well in a 384 well black walled clear bottom tissue culture assay plate in complete media (DMEM+10% FBS). The plates were then placed at 37° C. 5% CO2 for 6 hrs to allow the cells to attach to the assay plate. The complete media was then removed from the plate and replaced with assay media (DMEM+0.1% BSA) containing 100 ng/ml pertussis toxin, 0%, 0.25%, 0.5%, or 1.0% DMSO, and a three fold dilution series of doxycycline starting at 1 μg/ml. The plates were placed at 37° C./5% CO2 for 16 hrs to allow the induced expression of the GPR23 receptor. The cells were then loaded with LiveBLAzer™-FRET B/G substrate (2 μM) containing solution D for 2 hrs. The cells were plated at 20,000 cells per well in a 384 well black walled clear bottom tissue culture assay plate in complete media (DMEM+10% FBS). The plates were than placed at 37° C. 5% CO2 for 6 hrs to allow the cells to attach to the assay plate. The complete media was then removed from the plate and replaced with assay media (DMEM+0.1% BSA) containing 100 ng/ml pertussis toxin, 0.5% DMSO, and a three fold dilution series of doxycycline starting at 1 μg/ml. The plates were placed at 37° C. 5% CO2 for 16, 20 or 24 hrs to allow the induced expression of the GPR23 receptor. The cells were then loaded with LiveBLAzer™-FRET B/G substrate (2 μM) containing solution D for 2 hrs. Dose response of T-REx-GPR23-CRE-bla CHO-K1 cells to Doxycycline. T-REx-GPR23-CRE-bla CHO-K1 cells were plated in Growth Media (+) and allowed to attach to the tissue culture plate for 6 hrs. They were then induced for GPR23 expression overnight with doxycycline for 16 hrs in Assay Media. Cells were then loaded with LiveBLAzer™-FRET B/G Substrate (CCF4-AM) for 2 hours. Fluorescence emission values at 460 nm and 530 nm were obtained using a standard florescence plate reader and the Blue/Green Emission Ratios were plotted against the indicated concentrations of doxycycline (FIG. 40).

**Q.** For `C[C@H]1c2cccc(O)c2C(=O)C2=C(O)[C@]3(O)C(=O)C(C(N)=O)=C(O)[C@@H](N(C)C)[C@@H]3[C@@H](O)[C@@H]21` [Doxycycline], which EC50 ([1]; clone #2, 0.5% DMSO) is on record?
**A.** 0.386 ng/mL (≈ 0.869 nM)

**Q.** What about the EC50 ([1]; clone #25, 0.5% DMSO) of the same molecule?
**A.** 1.12 ng/mL (≈ 2.52 nM)

**Q.** And the EC50 ([1]; clone #53, 0.5% DMSO)?
**A.** 0.524 ng/mL (≈ 1.18 nM)

**Q.** And the maximum response ratio ([2]; 20,000 cells per well)?
**A.** 5.7 fold

**Q.** What about the EC50 ([2]; Cricetulus griseus, 16 h, 0% DMSO, 20,000 cells per well) of the same molecule?
**A.** 3.3 ng/mL

**Q.** And the EC50 ([2]; Cricetulus griseus, 16 h, 0.25% DMSO, 20,000 cells per well)?
**A.** 4 ng/mL

**Q.** And the EC50 ([2]; Cricetulus griseus, 16 h, 0.5% DMSO, 20,000 cells per well)?
**A.** 4 ng/mL

**Q.** And the EC50 ([2]; Cricetulus griseus, 16 h, 1.0% DMSO, 20,000 cells per well)?
**A.** 5.1 ng/mL

**Q.** What about the EC50 ([2]; Cricetulus griseus, 16 h, 2,500 cells/well, 16 hrs induction) of the same molecule?
**A.** 1.3 ng/mL

**Q.** And the EC50 ([2]; Cricetulus griseus, 16 h, 5,000 cells/well, 16 hrs induction)?
**A.** 1 ng/mL

**Q.** What about the EC50 ([2]; Cricetulus griseus, 16 h, 10,000 cells/well, 16 hrs induction) of the same molecule?
**A.** 1.6 ng/mL

**Q.** And the EC50 ([2]; Cricetulus griseus, 16 h, 20,000 cells/well, 16 hrs induction)?
**A.** 2 ng/mL

**Q.** And the EC50 ([2]; Cricetulus griseus, 16 h, 16 hours induction, 0.5% DMSO)?
**A.** 4 ng/mL

**Q.** And the EC50 ([2]; Cricetulus griseus, 20 h, 20 hours induction, 0.5% DMSO)?
**A.** 1.9 ng/mL

**Q.** What about the EC50 ([2]; Cricetulus griseus, 24 h, 24 hours induction, 0.5% DMSO) of the same molecule?
**A.** 2 ng/mL

**Q.** And the pEC50 ([2]; Cricetulus griseus, representative data, 16 hrs induction, 2 hours loading)?
**A.** 8.77
